Assay results: patent publication US8178570B2, “Tie-2 modulators and methods of use” (Exelixis, Inc., priority 2003, dated 2012)

Molecular target: Tie-2 (Homo sapiens, UniProt Q02763)
Test: Tie-2 tyrosine kinase activity: kinase-dependent ATP consumption (pEY substrate, luciferase/luciferin chemiluminescence) or 33P-ATP incorporation into substrate
Format: biochemical
Details: Tie-2 (human enzyme) inhibition, Table 2, class symbols A-D
Description: One measure of inhibition is Ki. […] The Ki for a compound is determined from the IC50 based on three assumptions. First, only one compound molecule binds to the enzyme and there is no cooperativity. […] Third, the enzymatic rate of the enzyme-inhibitor complex is zero. The rate (i.e., compound concentration) data are fitted to the equation:
[formula] where V is the observed rate, Vmax, is the rate of the free enzyme, I0 is the inhibitor concentration, E0 is the enzyme concentration, and Kd is the dissociation constant of the enzyme-inhibitor complex.
Tyrosine kinase activity is determined by 1) measurement of kinase-dependent ATP consumption by in the presence of a generic substrate such as polyglutamine, tyrosine (pEY), by luciferase/luciferin-mediated chemiluminescence or; 2) incorporation of radioactive phosphate derived from ^33P-ATP into a generic substrate which has been absorbed onto the well surface of polystyrene microtiter plates. Phosphorylated substrate products are quantified by scintillation spectrometry.
Inhibition is indicated as IC50 with following key: A=IC50 less than 50 nM, B=IC50 greater than 50 nM, but less than or equal to 1000 nM, C=IC50 greater than 1000 nM, but less than 10,000 nM, and D=IC50 10,000 nM or greater. The abbreviation for human enzyme, Tie-2, is defined as tyrosine kinase with immunoglobulin and EGF repeats.

Sequence of Tie-2 (Q02763 23-1124): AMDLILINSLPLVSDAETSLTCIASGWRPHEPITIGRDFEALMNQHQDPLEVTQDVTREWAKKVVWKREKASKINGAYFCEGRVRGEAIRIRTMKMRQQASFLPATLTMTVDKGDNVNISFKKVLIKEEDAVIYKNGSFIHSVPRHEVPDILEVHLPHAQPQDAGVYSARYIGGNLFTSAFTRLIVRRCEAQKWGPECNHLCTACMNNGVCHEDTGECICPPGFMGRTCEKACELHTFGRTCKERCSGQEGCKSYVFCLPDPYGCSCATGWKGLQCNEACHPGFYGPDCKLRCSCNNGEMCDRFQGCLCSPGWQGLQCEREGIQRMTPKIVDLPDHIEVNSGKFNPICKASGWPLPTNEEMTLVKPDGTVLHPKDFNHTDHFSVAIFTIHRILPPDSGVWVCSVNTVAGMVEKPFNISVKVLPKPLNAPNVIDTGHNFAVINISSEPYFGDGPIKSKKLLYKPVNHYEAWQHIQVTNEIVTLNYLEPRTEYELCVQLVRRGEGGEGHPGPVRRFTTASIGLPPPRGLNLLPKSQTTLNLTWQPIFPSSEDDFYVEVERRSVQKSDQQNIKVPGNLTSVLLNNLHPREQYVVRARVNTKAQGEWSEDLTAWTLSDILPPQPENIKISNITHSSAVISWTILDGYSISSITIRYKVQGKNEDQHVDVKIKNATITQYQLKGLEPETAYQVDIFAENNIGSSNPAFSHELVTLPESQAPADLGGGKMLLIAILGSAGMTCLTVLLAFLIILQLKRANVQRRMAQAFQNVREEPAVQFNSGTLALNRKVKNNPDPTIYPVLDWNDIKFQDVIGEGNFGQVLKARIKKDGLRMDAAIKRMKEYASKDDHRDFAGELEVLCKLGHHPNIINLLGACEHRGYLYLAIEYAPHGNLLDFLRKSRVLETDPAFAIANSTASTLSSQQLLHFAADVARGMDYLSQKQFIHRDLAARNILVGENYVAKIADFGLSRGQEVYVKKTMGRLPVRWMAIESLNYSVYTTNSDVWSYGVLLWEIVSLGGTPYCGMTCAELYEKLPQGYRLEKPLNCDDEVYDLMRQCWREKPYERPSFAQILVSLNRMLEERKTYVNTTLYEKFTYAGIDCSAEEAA

**Q.** With `COc1ccc(-c2nc(-c3ccncc3)nn2CCN(C(=O)Nc2ccc(Oc3ccccc3)cc2)C2CCCC2)cc1Cl` [Entry 147, N-(2-{5-[3-chloro-4-(methyloxy)phenyl]-3-pyridin-4-yl-1H-1,2,4-triazol-1-yl}ethyl)-N-cyclopentyl-N′-[4-(phenyloxy)phenyl]urea] as the molecule, how does the IC50 read?
**A.** ≥ 10 µM

**Q.** Which IC50 does the source give for `COc1ccc(-c2nc(-c3ccncc3)nn2CCN(C(=O)Nc2ccc(Cl)cc2C(F)(F)F)C2CCCC2)cc1Cl` [Entry 97, N-(2-{5-[3-chloro-4-(methyloxy)phenyl]-3-pyridin-4-yl-1H-1,2,4-triazol-1-yl}ethyl)-N′-[4-chloro-2-(trifluoromethyl)phenyl]-N-cyclopentylurea] here?
**A.** 1 to 10 µM

**Q.** With `CCc1ccccc1NC(=O)N(CCn1nc(-c2ccncc2)nc1-c1ccc(OC)c(Cl)c1)C1CCCC1` [Entry 87, N-(2-{5-[3-chloro-4-(methyloxy)phenyl]-3-pyridin-4-yl-1H-1,2,4-triazol-1-yl}ethyl)-N-cyclopentyl-N′-(2-ethylphenyl)urea] as the molecule, how does the IC50 read?
**A.** 1 to 10 µM

**Q.** `Cc1nc(-c2ccnc(N)c2)nn1CCN(C(=O)Cc1cccc2ccccc12)C1CCCC1` [Entry 176, N-{2-[3-(2-aminopyridin-4-yl)-5-methyl-1H-1,2,4-triazol-1-yl]ethyl}-N-cyclopentyl-2-naphthalen-1-ylacetamide] was tested. Which IC50 did it give?
**A.** < 0.05 µM

**Q.** With `COc1ccc(-c2nc(-c3ccncc3)nn2CCCN(C(=O)Cc2cccc3ccccc23)C2CCCC2)cc1Cl` [Entry 8, N-(3-{5-[3-chloro-4-(methyloxy)phenyl]-3-pyridin-4-yl-1H-1,2,4-triazol-1-yl}propyl)-N-cyclopentyl-2-naphthalen-1-ylacetamide] as the molecule, how does the IC50 read?
**A.** ≥ 10 µM

**Q.** Which IC50 does the source give for `COc1ccc(-c2nc(-c3ccncc3)nn2CCN(C(=O)N[C@@H]2C[C@H]2c2ccccc2)C2CCCC2)cc1Cl` [Entry 82, N-(2-{5-[3-chloro-4-(methyloxy)phenyl]-3-pyridin-4-yl-1H-1,2,4-triazol-1-yl}ethyl)-N-cyclopentyl-N′-[(1R,2S)-2-phenylcyclopropyl]urea] here?
**A.** 1 to 10 µM

**Q.** For `COc1ccc(-c2nc(-c3ccncc3)nn2CCN(C(=O)Nc2ccc(F)cc2F)C2CCCC2)cc1Cl` [Entry 116, N-(2-{5-[3-chloro-4-(methyloxy)phenyl]-3-pyridin-4-yl-1H-1,2,4-triazol-1-yl}ethyl)-N-cyclopentyl-N′-(2,4-difluorophenyl)urea], which IC50 is on record?
**A.** ≥ 10 µM

**Q.** `O=C(Cc1cccc2ccccc12)N(CCn1nc(-c2cccc(Cl)c2)nc1-c1ccncc1)C1CCCC1` [Entry 59, N-{2-[3-(3-chlorophenyl)-5-pyridin-4-yl-1H-1,2,4-triazol-1-yl]ethyl}-N-cyclopentyl-2-naphthalen-1-ylacetamide] was tested. Which IC50 did it give?
**A.** 1 to 10 µM

**Q.** Which IC50 does the source give for `COc1ccc(-c2nc(-c3cccnc3)nn2CCN(C(=O)Cc2cccc3ccccc23)C2CCCC2)cc1Cl` [Entry 13, N-(2-{5-[3-chloro-4-(methyloxy)phenyl]-3-pyridin-3-yl-1H-1,2,4-triazol-1-yl}ethyl)-N-cyclopentyl-2-naphthalen-1-ylacetamide] here?
**A.** ≥ 10 µM

**Q.** `COc1ccc(-c2nc(-c3ccncc3)nn2CCN(C(=O)Nc2c(C)cccc2C(C)(C)C)C2CCCC2)cc1Cl` [Entry 130, N-(2-{5-[3-chloro-4-(methyloxy)phenyl]-3-pyridin-4-yl-1H-1,2,4-triazol-1-yl}ethyl)-N-cyclopentyl-N′-[2-(1,1-dimethylethyl)-6-methylphenyl]urea] was tested. Which IC50 did it give?
**A.** ≥ 10 µM

**Q.** With `COc1ccc(-c2nc(-c3ccncc3)nn2CCN(C(=O)Nc2ccccc2Cl)C2CCCC2)cc1Cl` [Entry 118, N-(2-{5-[3-chloro-4-(methyloxy)phenyl]-3-pyridin-4-yl-1H-1,2,4-triazol-1-yl}ethyl)-N′-(2-chlorophenyl)-N-cyclopentylurea] as the molecule, how does the IC50 read?
**A.** 1 to 10 µM

**Q.** With `COc1ccc(-c2nc(-c3ccncc3)nn2CCN(C(=O)Nc2ccc(C(C)C)cc2)C2CCCC2)cc1Cl` [Entry 100, N-(2-{5-[3-chloro-4-(methyloxy)phenyl]-3-pyridin-4-yl-1H-1,2,4-triazol-1-yl}ethyl)-N-cyclopentyl-N′-[4-(1-methylethyl)phenyl]urea] as the molecule, how does the IC50 read?
**A.** ≥ 10 µM

**Q.** For `O=C(Cc1cccc2ccccc12)N(CCn1nc(-c2ccncc2)nc1-c1cccc(Cl)c1)C1CCCC1` [Entry 58, N-{2-[5-(3-chlorophenyl)-3-pyridin-4-yl-1H-1,2,4-triazol-1-yl]ethyl}-N-cyclopentyl-2-naphthalen-1-ylacetamide], which IC50 is on record?
**A.** < 0.05 µM

**Q.** With `CCCCCNC(=O)N(CCn1nc(-c2ccncc2)nc1-c1ccc(OC)c(Cl)c1)C1CCCC1` [Entry 103, N-(2-{5-[3-chloro-4-(methyloxy)phenyl]-3-pyridin-4-yl-1H-1,2,4-triazol-1-yl}ethyl)-N-cyclopentyl-N′-pentylurea] as the molecule, how does the IC50 read?
**A.** ≥ 10 µM

**Q.** For `O=C(Cc1cccc2ccccc12)N(CCn1nc(-c2ccco2)nc1-c1ccncc1)C1CCCC1` [Entry 18, N-cyclopentyl-N-[2-(3-furan-2-yl-5-pyridin-4-yl-1H-1,2,4-triazol-1-yl)ethyl]-2-naphthalen-1-ylacetamide], which IC50 is on record?
**A.** 0.05 to 1 µM

**Q.** For `Cc1nc(-c2ccncc2)nn1CCN(CCN1CCCCC1)C(=O)Cc1cccc2ccccc12` [Entry 178, N-[2-(5-methyl-3-pyridin-4-yl-1H-1,2,4-triazol-1-yl)ethyl]-2-naphthalen-1-yl-N-(2-piperidin-1-ylethyl)acetamide], which IC50 is on record?
**A.** ≥ 10 µM

**Q.** Which IC50 does the source give for `COc1ccc(-c2nc(-c3ccncc3)nn2CCN(C(=O)Nc2c(C)cc(C)cc2C)C2CCCC2)cc1Cl` [Entry 148, N-(2-{5-[3-chloro-4-(methyloxy)phenyl]-3-pyridin-4-yl-1H-1,2,4-triazol-1-yl}ethyl)-N-cyclopentyl-N′-(2,4,6-trimethylphenyl)urea] here?
**A.** ≥ 10 µM

**Q.** `COc1ccc(-c2nc(-c3ccncc3)nn2CCN(C(=O)Nc2cccc3ccccc23)C2CCCC2)cc1Cl` [Entry 29, N-(2-{5-[3-chloro-4-(methyloxy)phenyl]-3-pyridin-4-yl-1H-1,2,4-triazol-1-yl}ethyl)-N-cyclopentyl-N′-naphthalen-1-ylurea] was tested. Which IC50 did it give?
**A.** < 0.05 µM

**Q.** Which IC50 does the source give for `O=C(Cc1cccc2ccccc12)N(CCn1nc(-c2ccncc2)nc1-c1ccccc1Cl)C1CCCC1` [Entry 61, N-{2-[5-(2-chlorophenyl)-3-pyridin-4-yl-1H-1,2,4-triazol-1-yl]ethyl}-N-cyclopentyl-2-naphthalen-1-ylacetamide] here?
**A.** < 0.05 µM

**Q.** How did the IC50 turn out when `COc1ccc(-c2nc(-c3ccncc3)nn2CCN(C(=O)Nc2ccccc2C)C2CCCC2)cc1Cl` [Entry 86, N-(2-{5-[3-chloro-4-(methyloxy)phenyl]-3-pyridin-4-yl-1H-1,2,4-triazol-1-yl}ethyl)-N-cyclopentyl-N′-(2-methylphenyl)urea] was run?
**A.** 1 to 10 µM

**Q.** With `COc1ccc(-c2nc(-c3ccncc3)nn2CCN(C(=O)Nc2ccc(C(C)=O)cc2)C2CCCC2)cc1Cl` [Entry 99, N′-(4-acetylphenyl)-N-(2-{5-[3-chloro-4-(methyloxy)phenyl]-3-pyridin-4-yl-1H-1,2,4-triazol-1-yl}ethyl)-N-cyclopentylurea] as the molecule, how does the IC50 read?
**A.** ≥ 10 µM

**Q.** `COc1ccc(-c2nc(-c3ccncc3)n(CCCCN(C(=O)Cc3cccc4ccccc34)C3CCCC3)n2)cc1Cl` [Entry 25, N-(4-{3-[3-chloro-4-(methyloxy)phenyl]-5-pyridin-4-yl-1H-1,2,4-triazol-1-yl}butyl)-N-cyclopentyl-2-naphthalen-1-ylacetamide] was tested. Which IC50 did it give?
**A.** ≥ 10 µM

**Q.** How did the IC50 turn out when `C=CCNC(=O)N(CCn1nc(-c2ccncc2)nc1-c1ccc(OC)c(Cl)c1)C1CCCC1` [Entry 156, N-(2-{5-[3-chloro-4-(methyloxy)phenyl]-3-pyridin-4-yl-1H-1,2,4-triazol-1-yl}ethyl)-N-cyclopentyl-N′-prop-2-en-1-ylurea] was run?
**A.** ≥ 10 µM

**Q.** `COc1ccc(-c2nc(-c3ccncc3)nn2CCN(C(=O)Nc2ccc(C)c(C)c2)C2CCCC2)cc1Cl` [Entry 96, N-(2-{5-[3-chloro-4-(methyloxy)phenyl]-3-pyridin-4-yl-1H-1,2,4-triazol-1-yl}ethyl)-N-cyclopentyl-N′-(3,4-dimethylphenyl)urea] was tested. Which IC50 did it give?
**A.** ≥ 10 µM

**Q.** `COc1ccc(-c2nc(-c3ccncc3)nn2CCN(C(=O)Nc2ccc(SC)cc2)C2CCCC2)cc1Cl` [Entry 98, N-(2-{5-[3-chloro-4-(methyloxy)phenyl]-3-pyridin-4-yl-1H-1,2,4-triazol-1-yl}ethyl)-N-cyclopentyl-N′-[4-(methylthio)phenyl]urea] was tested. Which IC50 did it give?
**A.** ≥ 10 µM

**Q.** `COc1ccc(-c2nc(-c3ccncc3)n(CCN(C(=O)Nc3cccc4ccccc34)C3CCCC3)n2)cc1Cl` [Entry 55, N-(2-{3-[3-chloro-4-(methyloxy)phenyl]-5-pyridin-4-yl-1H-1,2,4-triazol-1-yl}ethyl)-N-cyclopentyl-N′-naphthalen-1-ylurea] was tested. Which IC50 did it give?
**A.** ≥ 10 µM

**Q.** With `CCOC(=O)Cn1nc(-c2ccncc2)nc1-c1ccc(OC)c(Cl)c1` [Entry 2, ethyl {5-[3-chloro-4-(methyloxy)phenyl]-3-pyridin-4-yl-1H-1,2,4-triazol-1-yl}acetate] as the molecule, how does the IC50 read?
**A.** ≥ 10 µM

**Q.** `CCOc1cc(-c2nc(C)n(CCN(C(=O)Cc3cccc4ccccc34)C3CCCC3)n2)cc(N)n1` [Entry 187, N-(2-{3-[2-amino-6-(ethyloxy)pyridin-4-yl]-5-methyl-1H-1,2,4-triazol-1-yl}ethyl)-N-cyclopentyl-2-naphthalen-1-ylacetamide] was tested. Which IC50 did it give?
**A.** 1 to 10 µM

**Q.** How did the IC50 turn out when `COc1ccc(-c2nc(-c3ccncc3)nn2CCN(C(=O)NC(C)(C)C)C2CCCC2)cc1Cl` [Entry 107, N-(2-{5-[3-chloro-4-(methyloxy)phenyl]-3-pyridin-4-yl-1H-1,2,4-triazol-1-yl}ethyl)-N-cyclopentyl-N′-(1,1-dimethylethyl)urea] was run?
**A.** ≥ 10 µM
